{"source": "the kinase profiling compilation of Christmann-Franck et al. (2016)", "assay_in_all_cases": "radiometric filter-binding kinase assay, Kinase HotSpot", "details_in_all_cases": "compound 0.5 µM; ATP 10 µM", "key": {"ADRBK2 (human)": {"target": "ADRBK2 (human) (UniProt P35626)", "sequence (P35626 whole entry, looked up)": "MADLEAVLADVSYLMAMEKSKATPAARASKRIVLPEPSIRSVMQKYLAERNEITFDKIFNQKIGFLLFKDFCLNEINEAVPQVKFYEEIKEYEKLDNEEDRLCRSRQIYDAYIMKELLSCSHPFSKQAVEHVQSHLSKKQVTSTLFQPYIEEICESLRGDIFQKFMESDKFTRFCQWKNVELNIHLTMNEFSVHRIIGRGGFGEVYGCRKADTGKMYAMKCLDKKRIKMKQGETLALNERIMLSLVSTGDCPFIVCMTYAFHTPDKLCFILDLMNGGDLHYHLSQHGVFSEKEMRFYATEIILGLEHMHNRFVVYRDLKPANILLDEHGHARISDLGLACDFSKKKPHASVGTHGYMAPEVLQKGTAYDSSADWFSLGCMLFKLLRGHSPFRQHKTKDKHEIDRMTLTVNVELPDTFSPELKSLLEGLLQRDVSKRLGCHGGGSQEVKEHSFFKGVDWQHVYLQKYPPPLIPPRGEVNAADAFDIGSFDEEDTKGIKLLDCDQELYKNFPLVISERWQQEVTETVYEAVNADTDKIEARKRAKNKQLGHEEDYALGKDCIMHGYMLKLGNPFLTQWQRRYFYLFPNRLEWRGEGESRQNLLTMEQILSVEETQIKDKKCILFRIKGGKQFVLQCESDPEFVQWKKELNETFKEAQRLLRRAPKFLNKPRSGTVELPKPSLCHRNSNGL"}, "AKT3 (human)": {"target": "AKT3 (human) (UniProt Q9Y243)"}, "ALK (human)": {"target": "ALK (human) (UniProt Q9UM73)"}, "CAMK1D (human)": {"target": "CAMK1D (human) (UniProt Q8IU85)"}, "CDC42BPB (human)": {"target": "CDC42BPB (human) (UniProt Q9Y5S2)"}, "CDK5 CDK5R1 p35 (human)": {"target": "CDK5 CDK5R1 p35 (human) (UniProt Q00535+Q15078)"}, "CDK9 CCNT1 (human)": {"target": "CDK9 CCNT1 (human) (UniProt P50750+O60563)"}, "CHUK (human)": {"target": "CHUK (human) (UniProt O15111)"}, "CLK3 (human)": {"target": "CLK3 (human) (UniProt P49761)"}, "CSNK1E (human)": {"target": "CSNK1E (human) (UniProt P49674)"}, "CSNK2A2 (human)": {"target": "CSNK2A2 (human) (UniProt P19784)"}, "EPHA2 (human)": {"target": "EPHA2 (human) (UniProt P29317)"}, "EPHA5 (human)": {"target": "EPHA5 (human) (UniProt P54756)"}, "ERBB4 (human)": {"target": "ERBB4 (human) (UniProt Q15303)"}, "FGFR4 (human)": {"target": "FGFR4 (human) (UniProt P22455)"}, "GRK4 (human)": {"target": "GRK4 (human) (UniProt P32298)"}, "HIPK3 (human)": {"target": "HIPK3 (human) (UniProt Q9H422)"}, "IKBKB (human)": {"target": "IKBKB (human) (UniProt O14920)"}, "MAP3K11 (human)": {"target": "MAP3K11 (human) (UniProt Q16584)"}, "MAPK1 (human)": {"target": "MAPK1 (human) (UniProt P28482)"}, "MAPK12 (human)": {"target": "MAPK12 (human) (UniProt P53778)", "sequence (P53778 whole entry, looked up)": "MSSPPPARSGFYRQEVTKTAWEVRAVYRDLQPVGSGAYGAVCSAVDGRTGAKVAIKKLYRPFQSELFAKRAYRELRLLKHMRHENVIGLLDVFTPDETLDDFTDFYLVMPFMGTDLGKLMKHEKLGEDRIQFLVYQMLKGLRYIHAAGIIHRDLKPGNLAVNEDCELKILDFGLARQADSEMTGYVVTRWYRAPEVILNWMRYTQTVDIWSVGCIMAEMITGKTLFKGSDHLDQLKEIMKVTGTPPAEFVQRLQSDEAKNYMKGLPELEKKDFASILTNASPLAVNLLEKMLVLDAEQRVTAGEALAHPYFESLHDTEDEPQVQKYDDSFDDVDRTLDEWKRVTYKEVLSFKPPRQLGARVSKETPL"}, "MAPK13 (human)": {"target": "MAPK13 (human) (UniProt O15264)", "sequence (O15264 whole entry, looked up)": "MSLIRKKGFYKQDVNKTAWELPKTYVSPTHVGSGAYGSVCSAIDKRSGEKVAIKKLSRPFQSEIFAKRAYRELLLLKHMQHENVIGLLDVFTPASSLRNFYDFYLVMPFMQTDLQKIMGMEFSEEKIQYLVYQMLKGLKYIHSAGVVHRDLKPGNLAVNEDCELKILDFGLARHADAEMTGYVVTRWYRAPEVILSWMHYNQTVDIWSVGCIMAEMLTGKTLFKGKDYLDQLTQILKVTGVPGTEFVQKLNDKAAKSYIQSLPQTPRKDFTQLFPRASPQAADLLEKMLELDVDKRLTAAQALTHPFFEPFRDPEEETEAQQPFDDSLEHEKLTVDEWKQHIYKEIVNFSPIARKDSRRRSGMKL"}, "MAPK3 (human)": {"target": "MAPK3 (human) (UniProt P27361)", "sequence (P27361 whole entry, looked up)": "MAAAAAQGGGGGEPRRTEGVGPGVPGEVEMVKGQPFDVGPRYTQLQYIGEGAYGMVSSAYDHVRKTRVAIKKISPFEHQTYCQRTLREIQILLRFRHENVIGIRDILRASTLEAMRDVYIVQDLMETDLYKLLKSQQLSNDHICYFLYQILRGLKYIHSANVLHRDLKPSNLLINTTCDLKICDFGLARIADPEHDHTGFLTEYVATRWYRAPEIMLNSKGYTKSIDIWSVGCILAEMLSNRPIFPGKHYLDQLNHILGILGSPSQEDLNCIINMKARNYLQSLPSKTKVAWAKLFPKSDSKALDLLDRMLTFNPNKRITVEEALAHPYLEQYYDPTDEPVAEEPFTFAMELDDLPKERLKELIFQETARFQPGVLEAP"}, "MARK4 (human)": {"target": "MARK4 (human) (UniProt Q96L34)"}, "NLK (human)": {"target": "NLK (human) (UniProt Q9UBE8)"}, "NTRK1 (human)": {"target": "NTRK1 (human) (UniProt P04629)"}, "NTRK2 (human)": {"target": "NTRK2 (human) (UniProt Q16620)"}, "NTRK3 (human)": {"target": "NTRK3 (human) (UniProt Q16288)"}, "PAK3 (human)": {"target": "PAK3 (human) (UniProt O75914)"}, "PKN2 (human)": {"target": "PKN2 (human) (UniProt Q16513)", "sequence (Q16513 whole entry, looked up)": "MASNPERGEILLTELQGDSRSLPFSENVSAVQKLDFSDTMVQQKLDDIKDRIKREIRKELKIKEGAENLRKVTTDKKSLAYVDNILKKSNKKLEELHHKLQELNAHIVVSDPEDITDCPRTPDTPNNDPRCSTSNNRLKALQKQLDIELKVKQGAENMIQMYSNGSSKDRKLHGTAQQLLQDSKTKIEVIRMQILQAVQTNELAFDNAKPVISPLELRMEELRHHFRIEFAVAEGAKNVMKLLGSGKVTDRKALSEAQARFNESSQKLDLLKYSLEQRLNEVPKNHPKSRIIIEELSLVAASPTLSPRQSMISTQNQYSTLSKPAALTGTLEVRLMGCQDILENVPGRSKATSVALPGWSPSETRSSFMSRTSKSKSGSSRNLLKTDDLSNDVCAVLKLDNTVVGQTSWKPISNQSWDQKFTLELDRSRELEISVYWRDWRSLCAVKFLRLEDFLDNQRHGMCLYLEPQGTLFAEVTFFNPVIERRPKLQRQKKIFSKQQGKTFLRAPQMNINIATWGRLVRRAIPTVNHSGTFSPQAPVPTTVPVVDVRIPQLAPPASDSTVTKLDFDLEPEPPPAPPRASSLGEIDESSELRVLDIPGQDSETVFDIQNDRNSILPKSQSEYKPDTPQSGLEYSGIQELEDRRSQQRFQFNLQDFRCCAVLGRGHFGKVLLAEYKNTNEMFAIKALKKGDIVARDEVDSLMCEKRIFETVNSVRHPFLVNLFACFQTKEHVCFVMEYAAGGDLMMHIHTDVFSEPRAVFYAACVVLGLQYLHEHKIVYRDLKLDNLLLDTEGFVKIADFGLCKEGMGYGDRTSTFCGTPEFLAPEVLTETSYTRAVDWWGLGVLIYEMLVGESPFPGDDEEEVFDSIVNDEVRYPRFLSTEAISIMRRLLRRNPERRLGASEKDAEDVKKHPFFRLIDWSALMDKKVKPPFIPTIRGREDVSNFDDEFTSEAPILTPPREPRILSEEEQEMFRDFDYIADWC"}, "PRKACA (human)": {"target": "PRKACA (human) (UniProt P17612)"}, "PRKCE (human)": {"target": "PRKCE (human) (UniProt Q02156)"}, "PRKCG (human)": {"target": "PRKCG (human) (UniProt P05129)"}, "PRKG1 (human)": {"target": "PRKG1 (human) (UniProt Q13976)", "sequence (Q13976 whole entry, looked up)": "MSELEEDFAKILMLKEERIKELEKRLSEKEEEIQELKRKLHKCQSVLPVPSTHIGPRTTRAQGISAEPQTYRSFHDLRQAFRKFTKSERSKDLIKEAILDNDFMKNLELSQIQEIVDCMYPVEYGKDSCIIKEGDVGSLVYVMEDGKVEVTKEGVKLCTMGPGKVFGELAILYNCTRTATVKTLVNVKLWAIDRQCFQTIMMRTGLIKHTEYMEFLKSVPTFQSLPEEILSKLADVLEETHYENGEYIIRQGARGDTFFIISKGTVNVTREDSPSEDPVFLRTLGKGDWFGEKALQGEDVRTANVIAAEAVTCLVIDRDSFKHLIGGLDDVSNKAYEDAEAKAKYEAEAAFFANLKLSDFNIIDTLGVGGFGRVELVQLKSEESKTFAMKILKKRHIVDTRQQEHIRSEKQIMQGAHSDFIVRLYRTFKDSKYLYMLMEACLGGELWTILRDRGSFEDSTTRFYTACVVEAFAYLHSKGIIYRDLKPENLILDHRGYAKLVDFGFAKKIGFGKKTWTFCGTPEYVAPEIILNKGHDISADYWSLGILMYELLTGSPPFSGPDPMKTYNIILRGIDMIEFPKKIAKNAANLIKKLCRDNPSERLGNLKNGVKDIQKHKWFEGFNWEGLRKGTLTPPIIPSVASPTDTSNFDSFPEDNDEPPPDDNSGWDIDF"}, "PRKG2 (human)": {"target": "PRKG2 (human) (UniProt Q13237)"}, "RAF1 (human)": {"target": "RAF1 (human) (UniProt P04049)"}, "ROCK2 (human)": {"target": "ROCK2 (human) (UniProt O75116)"}, "STK11 (human)": {"target": "STK11 (human) (UniProt Q15831)", "sequence (Q15831 whole entry, looked up)": "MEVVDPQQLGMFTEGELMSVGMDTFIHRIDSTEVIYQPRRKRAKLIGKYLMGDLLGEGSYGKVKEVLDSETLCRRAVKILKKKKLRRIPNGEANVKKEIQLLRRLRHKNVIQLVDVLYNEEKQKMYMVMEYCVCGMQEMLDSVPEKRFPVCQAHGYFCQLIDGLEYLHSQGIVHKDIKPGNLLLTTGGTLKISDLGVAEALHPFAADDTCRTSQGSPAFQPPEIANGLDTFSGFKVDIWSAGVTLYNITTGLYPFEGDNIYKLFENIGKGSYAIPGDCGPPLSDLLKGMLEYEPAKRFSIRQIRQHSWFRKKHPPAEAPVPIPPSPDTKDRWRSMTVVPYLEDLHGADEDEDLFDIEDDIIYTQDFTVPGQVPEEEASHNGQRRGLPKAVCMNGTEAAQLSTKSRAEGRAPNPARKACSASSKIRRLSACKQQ"}, "TGFBR2 (human)": {"target": "TGFBR2 (human) (UniProt P37173)"}, "TSSK1B (human)": {"target": "TSSK1B (human) (UniProt Q9BXA7)", "sequence (Q9BXA7 whole entry, looked up)": "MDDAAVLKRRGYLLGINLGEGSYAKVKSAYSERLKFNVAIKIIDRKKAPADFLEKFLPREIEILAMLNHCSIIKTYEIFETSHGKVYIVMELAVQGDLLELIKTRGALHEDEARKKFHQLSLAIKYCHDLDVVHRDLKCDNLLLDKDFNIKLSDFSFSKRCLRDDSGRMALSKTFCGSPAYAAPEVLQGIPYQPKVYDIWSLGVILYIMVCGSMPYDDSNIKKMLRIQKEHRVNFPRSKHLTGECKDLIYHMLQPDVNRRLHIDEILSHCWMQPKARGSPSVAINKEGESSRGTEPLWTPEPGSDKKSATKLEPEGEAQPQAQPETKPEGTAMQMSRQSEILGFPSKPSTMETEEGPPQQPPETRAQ"}, "ULK1 (human)": {"target": "ULK1 (human) (UniProt O75385)"}, "WNK3 (human)": {"target": "WNK3 (human) (UniProt Q9BYP7)"}}, "note": "“And” between values parts separate entries of the source, which are not always exact repeats. Identical values can stand only once."}
{"smiles": "CCOC(=O)c1c(C)[nH]c(/C=C2\\C(=O)Nc3ccccc32)c1C", "values": [{"measurement": "residual activity", "setting": "ADRBK2 (human)", "value": 94.7, "unit": "%"}, {"measurement": "residual activity", "setting": "AKT3 (human)", "value": 103, "unit": "%"}, {"measurement": "residual activity", "setting": "ALK (human)", "value": 79.2, "unit": "%"}, {"measurement": "residual activity", "setting": "CAMK1D (human)", "value": 93.1, "unit": "%"}, {"measurement": "residual activity", "setting": "CDC42BPB (human)", "value": 110, "unit": "%"}, {"measurement": "residual activity", "setting": "CDK5 CDK5R1 p35 (human)", "value": 96.7, "unit": "%"}, {"measurement": "residual activity", "setting": "CDK9 CCNT1 (human)", "value": 94.7, "unit": "%"}, {"measurement": "residual activity", "setting": "CHUK (human)", "value": 102, "unit": "%"}, {"measurement": "residual activity", "setting": "CLK3 (human)", "value": 100, "unit": "%"}, {"measurement": "residual activity", "setting": "CSNK1E (human)", "value": 73.7, "unit": "%"}, {"measurement": "residual activity", "setting": "CSNK2A2 (human)", "value": 94.7, "unit": "%"}, {"measurement": "residual activity", "setting": "EPHA2 (human)", "value": 105, "unit": "%"}, {"measurement": "residual activity", "setting": "EPHA5 (human)", "value": 91.9, "unit": "%"}, {"measurement": "residual activity", "setting": "ERBB4 (human)", "value": 71.2, "unit": "%"}, {"measurement": "residual activity", "setting": "FGFR4 (human)", "value": 82.4, "unit": "%"}, {"measurement": "residual activity", "setting": "GRK4 (human)", "value": 82.9, "unit": "%"}, {"measurement": "residual activity", "setting": "HIPK3 (human)", "value": 94.5, "unit": "%"}, {"measurement": "residual activity", "setting": "IKBKB (human)", "value": 101, "unit": "%"}, {"measurement": "residual activity", "setting": "MAP3K11 (human)", "value": 47, "unit": "%"}, {"measurement": "residual activity", "setting": "MAPK1 (human)", "value": 96.4, "unit": "%"}, {"measurement": "residual activity", "setting": "MAPK12 (human)", "value": 101, "unit": "%"}, {"measurement": "residual activity", "setting": "MAPK13 (human)", "value": 98.3, "unit": "%"}, {"measurement": "residual activity", "setting": "MAPK3 (human)", "value": 101, "unit": "%"}, {"measurement": "residual activity", "setting": "MARK4 (human)", "value": 99.6, "unit": "%"}, {"measurement": "residual activity", "setting": "NLK (human)", "value": 94.8, "unit": "%"}, {"measurement": "residual activity", "setting": "NTRK1 (human)", "value": 69.9, "unit": "%"}, {"measurement": "residual activity", "setting": "NTRK2 (human)", "value": 66.6, "unit": "%"}, {"measurement": "residual activity", "setting": "NTRK3 (human)", "value": 27.9, "unit": "%"}, {"measurement": "residual activity", "setting": "PAK3 (human)", "value": 99.1, "unit": "%"}, {"measurement": "residual activity", "setting": "PKN2 (human)", "value": 92, "unit": "%"}, {"measurement": "residual activity", "setting": "PRKACA (human)", "value": 97.3, "unit": "%"}, {"measurement": "residual activity", "setting": "PRKCE (human)", "value": 98.2, "unit": "%"}, {"measurement": "residual activity", "setting": "PRKCG (human)", "value": 91.9, "unit": "%"}, {"measurement": "residual activity", "setting": "PRKG1 (human)", "value": "78.3% and 92.8%"}, {"measurement": "residual activity", "setting": "PRKG2 (human)", "value": 78.9, "unit": "%"}, {"measurement": "residual activity", "setting": "RAF1 (human)", "value": 89.6, "unit": "%"}, {"measurement": "residual activity", "setting": "ROCK2 (human)", "value": 94.3, "unit": "%"}, {"measurement": "residual activity", "setting": "STK11 (human)", "value": 85.2, "unit": "%"}, {"measurement": "residual activity", "setting": "TGFBR2 (human)", "value": 101, "unit": "%"}, {"measurement": "residual activity", "setting": "TSSK1B (human)", "value": 91.2, "unit": "%"}, {"measurement": "residual activity", "setting": "ULK1 (human)", "value": 80.1, "unit": "%"}, {"measurement": "residual activity", "setting": "WNK3 (human)", "value": 104, "unit": "%"}]}
